The values below come from patent US7456146B2, “Lytic peptide prodrugs” (GHC Research Development Corporation, priority 2001, dated 2008).

Starred links: 1 amine or outer side, 2 acyl side, 3 side chain; linkers in the order of their positions; H or OH if unused. Groups on a side chain read outwards from the residue. No end group written: not given here. γGlu = O=C(O)[C@H](CCC(=O)[*:2])N[*:1]

Series [1] has as its system prostate cells not expressing PSMA (PC3). The series is described as follows: toxicity to prostate cells not expressing PSMA (FIG. 5). The series is classed as cell-based. Particulars: 25 and 50 mM concentrations. The source says:
(§1) The same analog was used to treat a PSMA-expressing prostate cells (LNCaP-FCG), ovarian cancer cells (HeLa) or prostate cells not expressing PSMA (PC3).

The next series deals with PNCap. In words: lytic activity on cultured tumor cells, prostate tumor PNCap (FIG. 4). The series is classed as cell-based. Particulars: 1, 10, 50 or 100 μM peptide. The method, then: (§2) This experiment, utilized a melittin analog having A [ε-γ]-Glu-[α-γ]-Glu at each of lysines 21 and 23: NH2-[…][ε-γ]-Glu-[α-γ]-Glu)-Arg-Lys([ε-γ]-Glu-[α-γ]-Glu)-Arg-Gln-Gln-COOH. (SEQ ID NO: 19) Two prostate tumors (PNCap and DU0145), two ovarian tumors (HeLa and SK-OV-3), one lung tumor (LLC 1) and one melanoma (B 16) were tested. Cultured cells were treated with 1, 10, 50 or 100 μM peptide.

The test system of a further series is B 16. The series is described as follows: lytic activity on cultured tumor cells, melanoma B 16 (FIG. 4). The series is classed as cell-based. Particulars: 1, 10, 50 or 100 μM peptide. The method, then: as §2
Another series deals with LLC 1. The series is described as follows: lytic activity on cultured tumor cells, lung tumor LLC 1 (FIG. 4). The series is classed as cell-based. Particulars: 1, 10, 50 or 100 μM peptide. On the procedure:
as §2

The test system of a further series is DU0145. In words: lytic activity on cultured tumor cells, prostate tumor DU0145 (FIG. 4). Particulars: 1, 10, 50 or 100 μM peptide. The series is classed as cell-based. The method, then:
as §2

Series [2] relates to PSMA-expressing prostate cells (LNCaP-FCG). In words: toxicity to PSMA-expressing prostate cells (FIG. 5). Format: cell-based. Particulars: 25 and 50 mM concentrations.
Excerpt: as §1

In the next series the test system is SK-OV-3. In words: lytic activity on cultured tumor cells, ovarian tumor SK-OV-3 (FIG. 4). Particulars: 1, 10, 50 or 100 μM peptide. Format: cell-based. The method, then: as §2
The subject of a further series is mice. In words: toxicity of escalating doses in mice. The series is classed as in vivo. Particulars: 50, 100, 150 and 200 mM. The method, then:
To assess the toxicity of this analog, mice were treated with escalating doses of analog, either subcutaneously or intravenously.

For a further series, the system named is HeLa. In words: lytic activity on cultured tumor cells, HeLa (FIG. 4, FIG. 5). The series is classed as cell-based. The method, then:
as §2, §1

Another series concerns nucleated cells. Particulars: cited from earlier work.
The test system of series [3] is mouse L-cells. The series is described as follows: ATP depletion assay (ATP bioluminescence), mouse L-cells (FIG. 3). The series is classed as cell-based. Particulars: 50 or 100 μM; 1 hour. The source says:
(§3) In order to obtain a more quantitative result, the assay was repeated and decrease in ATP levels was used as a surrogate marker for live versus dead cells. ATP plays a central role in the energy status of the cell and the regulation of enzymatic activity. The intracellular ATP level is strictly regulated. The assay of ATP has been used as a rapid and convenient measure of viable cell numbers. ATP level can be enzymatically determined with firefly luciferase, which specifically catalyzes the hydrolysis of ATP. The amount of light generated by this enzymatic reaction is directly related to the amount of ATP in the original sample.
(§4) For this purpose, the ATP Bioluminescence Assay Kit CLS II from Boehringer-Mannheim (Cat. No. 1699695) was employed. Briefly, 10^6 cells in 200 μl of medium containing the peptide, as above, were incubated at 37° C. in a CO2 incubator for 60 min. The cells were then lysed with 10 μl of 10% Triton X-100. Each lysate was transferred into a tube containing 155 μl of distilled water and 25 μl of stock luciferase and chemiluminescence was measured in a luminometer as directed by the manufacturer. As can been seen from FIG. 3, ATP is dramatically depleted in the presence of either 50 or 100 μM peptide, as compared to the controls.

The subject of series [4] is human prostate cancer cells (LNCaP). In words: ATP depletion assay (ATP bioluminescence), LNCaP (FIG. 3). Format: cell-based. Particulars: 50 or 100 μM; after 1 hour.
Excerpt: as §3, §4

Series [5] shares this test system. The series is described as follows: cell lysis assay, LNCaP prostate tumor cells (FIG. 1). Format: cell-based. Particulars: 50 μM; after 15 minutes. On the procedure: For cell lysis assay, 10^6 LNCaP prostate tumor cells were cultured in 48-well plate in 200 μl culture medium containing different concentrations of the peptide. The culture medium for LNCaP cell was RPMI 1640 medium with 2 mM L-glutamine adjusted to contain 1.5 g/L sodium bicarbonate, 4.5 g/L glucose, 10 mM HEPES, 1.0 mM sodium pyruvate, 90%; fetal bovine serum 10%. […]

In series [6] the test system is mouse L-cells. In words: cell lysis assay, mouse L-cells (FIG. 1). Particulars: 50 μM; after 24 hours. The series is classed as cell-based.

As to `CC[C@H](C)[C@H](NC(=O)CN)C(=O)NCC(=O)N[C@@H](C)C(=O)N[C@H](C(=O)N[C@@H](CC(C)C)C(=O)N[C@@H](CCCCN)C(=O)N[C@H](C(=O)N[C@@H](CC(C)C)C(=O)N[C@H](C(=O)N[C@H](C(=O)NCC(=O)N[C@@H](CC(C)C)C(=O)N1CCC[C@H]1C(=O)N[C@@H](C)C(=O)N[C@@H](CC(C)C)C(=O)N[C@H](C(=O)N[C@@H](CO)C(=O)N[C@@H](Cc1c[nH]c2ccccc12)C(=O)N[C@H](C(=O)N[C@@H](CCCCNC(=O)CC[C@H](NC(=O)CC[C@H](N)C(=O)O)C(=O)O)C(=O)N[C@@H](CCCNC(=N)N)C(=O)N[C@@H](CCCCNC(=O)CC[C@H](NC(=O)CC[C@H](N)C(=O)O)C(=O)O)C(=O)N[C@@H](CCCNC(=N)N)C(=O)N[C@@H](CCC(N)=O)C(=O)N[C@@H](CCC(N)=O)C(=O)O)[C@@H](C)CC)[C@@H](C)CC)[C@@H](C)O)[C@@H](C)O)C(C)C)C(C)C` [melittin analog], the toxicity to cells entry was “relatively unaffected” in [1]; “highly toxic” in series [2]; “highly toxic” in the series with HeLa (25 and 50 mM concentrations). Also, the lytic activity entry in the series on PNCap is on record as “strong lytic activity”; with B 16, “strong lytic activity”; with LLC 1 it was “strong lytic activity”; in the series with DU0145, “strong lytic activity”; in the series with SK-OV-3 it was “strong lytic activity”; with HeLa (1, 10, 50 or 100 μM peptide) it was “strong lytic activity”. Further, the “tolerated concentration relative to concentration needed to kill a mouse using the unmasked melittin peptide” value in the series with mice was 50-200 fold. Also, the “condition of mice after treatment” value in the series with mice (subcutaneously or intravenously, weeks following treatment) is “remained healthy, apparently unaffected”.
For the compound “NH2-Gly-Phe-Ile-Ala-Thr-Leu-Cys-Thr-Lys-Val-Leu-Asp-Phe-Gly-Ile-Asp-Lys-Leu-Ile-Gln-Leu-Ile-Glu-Asp-Lys-CONH2 (H-GFIATLCTKVLDFGIDKLIQLIEDK-NH2; listed as Entamoeba histolytica) [Amoebapore Helix 3]”, the “concentration with cytolytic activity” value in the series on nucleated cells is 10 to 100 µM.
Turning to “amoebapore helix 3-γ-Glu-γ-Glu: 25-residue C-terminal amidated amoebapore helix 3 peptide with two γ-linked glutamates on the ε amino group of the C-terminal lysine (GFIATLCTKVLDFGIDKLIQLIEDK([γGlu-γGlu])-NH2; N-terminus assumed; SMILES CC[C@H](C)[C@H](NC(=O)CNC(=O)[C@H](Cc1ccccc1)NC(=O)[C@H](CC(=O)O)NC(=O)[C@H](CC(C)C)NC(=O)[C@@H](NC(=O)[C@H](CCCCN)NC(=O)[C@@H](NC(=O)[C@H](CS)NC(=O)[C@H](CC(C)C)NC(=O)[C@@H](NC(=O)[C@H](C)NC(=O)[C@@H](NC(=O)[C@H](Cc1ccccc1)NC(=O)CN)[C@@H](C)CC)[C@@H](C)O)[C@@H](C)O)C(C)C)C(=O)N[C@@H](CC(=O)O)C(=O)N[C@@H](CCCCN)C(=O)N[C@@H](CC(C)C)C(=O)N[C@H](C(=O)N[C@@H](CCC(N)=O)C(=O)N[C@@H](CC(C)C)C(=O)N[C@H](C(=O)N[C@@H](CCC(=O)O)C(=O)N[C@@H](CC(=O)O)C(=O)N[C@@H](CCCCNC(=O)CC[C@H](NC(=O)CC[C@H](N)C(=O)O)C(=O)O)C(N)=O)[C@@H](C)CC)[C@@H](C)CC)”, the “cell lysis by ATP depletion” value with mouse L-cells [3] is recorded as “remain unaffected”; in series [4] it was “completely lysed”. Moreover, the cell lysis result in series [5] is “completely lysed”; in the series with mouse L-cells [6] it was “remain unaffected”.
